One test concerns rats. The test is described as follows: loss of righting reflexes (LORR) assay after IV bolus. The settings on record: for R/S ED50 ratio: ED50 for LORR of R form over S form; for hypnotic potency compared with methoxycarbonyl etomidate and etomidate / in vivo duration of action compared with methoxycarbonyl etomidate and etomidate: rat, in vivo.
The test system of the next test is ICR mice. The test is described as follows: In vivo sedative/hypnotic testing, IV bolus, mice. Also on record: species or system mouse. The settings on record: for Mouse response: IV bolus, doses as in the cell; for ED50: Mus musculus, sedation/hypnosis, IV. The procedure: (§1) Animals were housed in a dedicated room at the vivarium of VivoPath Inc., located at Redstone Center, 55 Union Street, Worcester, Mass. Housing and care was as specified in the USDA Animal Welfare Act (9 CFR, Parts 1, 2, and 3) and as described in the Guide for the Care and Use of Laboratory Animals from the National Research Council. Environmental conditions of housing rooms are set at the following ranges: temperature: 70±7° F. (22±4° C.), humidity: 50±20%, light cycle: 12-hour light/12-hour dark cycle—lights on at 7 am and off at 7 pm., air changes: ten or more air changes per hour with 100% fresh air. The animals' body weights were measured prior to the first dose on each experimental day.
Adult ICR mice (20-30 g) were purchased from Harlan (South Easton, Mass.). Drugs were administered as intravenous bolus injection in a tail vein.
(§2) Drugs were prepared in either dimethylsulfoxide/saline or saline vehicle or hydroxypropyl-β-cyclodextrin (20% in water, pH 7.0) solution and were administered as an intravenous bolus injection. Animals received 1-4 doses of drug(s) during an experimental day, either ascending doses or different drugs. Doses were administered at intervals equal to the longer of 1 h or 10-times the duration of apparent sedative/hypnotic effects from the previous dose. The sedative/hypnotic properties of the drugs were evaluated by observation of the rats, ranging from mild excitation, mild sedation apparent due to reduced activity, and moderate sedation to hypnosis reflected by loss of righting reflex (LORR, the ability to place rear and hind legs under the body, as well as attenuation/loss of nociceptive reflexes).

For a further test, the system named is Sprague-Dawley rats. The test is described as follows: In vivo sedative/hypnotic testing, IV bolus, rats. Also on record: species or system rat. To be noted: for Rat response: IV bolus, doses as in the cell; for ED50: Rattus norvegicus, sedation/hypnosis, IV. The procedure:
as §1
Adult male Sprague-Dawley rats (225-300 g) were purchased from Harlan (South Easton, Mass.).
as §2

As to α-methyl-methoxycarbonyl etomidate, the “R/S ED50 ratio” value with rats was 1.7.
With `COC(=O)c1ccccc1OC(=O)c1cncn1[C@H](C)c1ccccc1`, the Mouse response entry with ICR mice is given as “Mild excitation but no sedation at 2, 4 or 8 mg/kg IV”.
For `COC(=O)C1(OC(=O)c2cncn2[C@H](C)c2ccccc2)CCCC1`, the Rat response result in the test with Sprague-Dawley rats is “Sedative at 1 & 2 mg/kg, with rear paws out but head and forepaws mobile Hypnotic at 4 & 8 mg/kg, quite long-acting”.
Take `COC(=O)C(OC(=O)c1cncn1C(C)c1ccccc1)C(C)C` (stereo not shown) [isopropyl-methoxycarbonyl metomidate]: in the test on rats, the “R/S ED50 ratio” value turned out to be 3.0.
As to `C[C@H](c1ccccc1)n1cncc1C(=O)OC1(C(=O)OC2COC2)CC1`, the Mouse response result in the test on ICR mice was “No effect at 4 mg/kg IV”.
Take `CCOC(=O)c1cncn1[C@H](C)c1ccccc1` [drawing 81]: in the test on ICR mice, the Mouse response result is “Sedation/hypnosis induced at 2 & 4 mg/kg IV” and the median effective dose (ED50) – broadly, the dose at which the effect has come halfway, by size or by number of responders – was ~0.7 mg/kg. Also, in the test with Sprague-Dawley rats, the Rat response entry is “Sedation/hypnosis induced at 2 & 4 mg/kg IV” and the ED50 is ~0.7 mg/kg.
Take methyl-methoxycarbonyl metomidate: the “R/S ED50 ratio” value with rats is listed as 2.7.
As to `COC(=O)C1(OC(=O)c2cncn2[C@H](C)c2ccccc2)CCNCC1`, the Rat response result in the test with Sprague-Dawley rats is given as “No effect apparent at 4, 8 & 16 mg/kg”.
In the case of `COC(=O)C1(OC(=O)c2cncn2[C@H](C)c2ccccc2)CCCCC1`, the Rat response result in the test on Sprague-Dawley rats was “Mildly sedative at 4 mg/kg Hypnotic at 8 mg/kg - deep and long-acting”.
Turning to β-methyl-methoxycarbonyl etomidate, the “R/S ED50 ratio” value in the test with rats worked out at 1.2.
For the molecule `COC(=O)C1(OC(=O)c2cncn2[C@H](C)c2ccccc2)CCOCC1`, the Rat response entry in the test with Sprague-Dawley rats was “Mildly sedative at 16 mg/kg More profound short-acting sedation at 32 mg/kg”.
As to cyclopentyl-methoxycarbonyl metomidate, in the test on rats, the “hypnotic potency compared with methoxycarbonyl etomidate and etomidate” value is “nearly an order of magnitude higher than that of methoxycarbonyl etomidate and similar to that of etomidate”; the “in vivo duration of action compared with methoxycarbonyl etomidate and etomidate” value is “intermediate between those of methoxycarbonyl etomidate and etomidate”.
With `COC(=O)C1(OC(=O)c2cncn2[C@H](C)c2ccccc2)CCN(C)CC1`, the Rat response entry in the test with Sprague-Dawley rats is recorded as “No effect apparent at 4, 8 & 16 mg/kg”.
Take `COC(=O)C1(OC(=O)c2cncn2[C@H](C)c2ccccc2)CCC1` [Cyclobutyl-MOC-metomidate, cyclobutyl-methoxycarbonyl metomidate]: in the test on rats, the “hypnotic potency compared with methoxycarbonyl etomidate and etomidate” value was “nearly an order of magnitude higher than that of methoxycarbonyl etomidate and similar to that of etomidate”; the “in vivo duration of action compared with methoxycarbonyl etomidate and etomidate” value was “intermediate between those of methoxycarbonyl etomidate and etomidate”. Further, in the test on ICR mice, the Mouse response result is “Sedation/hypnosis induced at 2, 4 & 8 mg/kg IV” and the ED50 lay within 1 to 2 mg/kg. For the same molecule, the “slope of duration of LORR vs logarithm of dose” value in the test with ICR mice (mice) was “approximately 7”. Moreover, in the test on Sprague-Dawley rats, the Rat response result was “Sedation/hypnosis induced at 1, 2, 4 & 8 mg/kg IV” and the ED50 was ~1 mg/kg. The “slope of duration of LORR vs logarithm of dose” value in the test with Sprague-Dawley rats (rats) was ~5.
On to `COC(=O)C1(OC(=O)c2cncn2[C@H](C)c2ccccc2)CC1` [drawing 83], for which, in the test on ICR mice, the Mouse response result was “Sedation/hypnosis induced at 2 & 4 mg/kg IV” and the ED50 is ~0.7 mg/kg. Besides, in the test with Sprague-Dawley rats, the Rat response result was “Sedation/hypnosis induced at 2 & 4 mg/kg IV” and the 50% effective dose (ED50) is ~0.7 mg/kg.
Consider `COC(=O)C(OC(=O)c1cncn1[C@H](C)c1ccccc1)C1CC1` (stereo partly shown), for which, in the test on ICR mice, the Mouse response result is given as “Sedation/hypnosis induced at 8, 16 & 32 mg/kg IV” and the 50% effective dose (ED50) is ~8 mg/kg.

Values taken from patent publication US10154991B2, “Anesthetic compounds and related methods of use” (priority 2012, dated 2018).
